Assay results reported in ChEMBL document CHEMBL1134013, “Synthesis and biological evaluation of benzo[b]naphthyridones, a series of new topical antibacterial agents” (2001).
In brackets after ≈: the same amount, converted by molar mass.

Experiments:
Staphylococcus aureus = test: Minimum inhibitory concentration against Quinolone Resistant Staphylococcus aureus LF11C128B Strain.; assay type: functional
Staphylococcus hominis = test: Minimum inhibitory concentration against Quinolone sensitive Staphylococcus hominis IP8203 Strain.; assay type: functional

| Compound | MIC (Staphylococcus aureus) [µg/mL] | MIC (Staphylococcus hominis) [µg/mL] |
| --- | --- | --- |
| C[N+](C)(C)CCO.Cn1cc(C(=O)[O-])c(=O)c2cc3cc(F)c(N4CCN(c5ccc(F)cc5)CC4)cc3nc21 | 0.5 | 0.25 |
| Cn1cc(C(=O)O)c(=O)c2cc3cc(F)c(N4CCCCCCC4)cc3nc21 | 1 (≈ 2.61 µM) | 1 (≈ 2.61 µM) |
| CCn1cc(C(=O)O)c(=O)c2cc(F)c(N3CCN(C)CC3)cc21 [PEFLOXACIN] | – | 0.5 (≈ 1.5 µM) |
| Cn1cc(C(=O)O)c(=O)c2cc3cc(F)c(N4CCN(Cc5ccc(F)cc5)CC4)cc3nc21 | 1 (≈ 2.15 µM) | 0.5 (≈ 1.08 µM) |
| C/C(=C\C(=O)OCCCCCCCCC(=O)[O-])C[C@@H]1OC[C@H](C[C@@H]2O[C@H]2[C@@H](C)[C@H](C)O)[C@@H](O)[C@H]1O.C/C(=C\C(=O)OCCCCCCCCC(=O)[O-])C[C@@H]1OC[C@H](C[C@@H]2O[C@H]2[C@@H](C)[C@H](C)O)[C@@H](O)[C@H]1O.[Ca+2] | 0.5 | 0.5 |
| Cn1cc(C(=O)O)c(=O)c2cc3cc(F)c(NC4CCCCC4)cc3nc21 | 1 (≈ 2.71 µM) | 1 (≈ 2.71 µM) |
| CSCc1cccc(N2CCN(c3cc4nc5c(cc4cc3F)c(=O)c(C(=O)O)cn5C)CC2)c1 | 4 (≈ 8.12 µM) | 4 (≈ 8.12 µM) |
